Experiment [1] concerns compound 48/80-induced lethality. Briefly: Protection of rats from compound 48/80-induced lethality. The class given is in vivo, rat (male, inbred Wistar strain). Particulars: Rattus norvegicus, 4 h, read-out: Compound 48/80 lethality test in rats-ED50. As for the experimental part: Protection of rats from compound 48/80-induced lethality
The protection from compound 48/80-induced lethal circulatory collapse appears to be a simple way of evaluating quantitatively the antihistaminic activity of test compounds. Male rats of an inbred Wistar strain, weighing 240-260 g were used in the experiment. After overnight starvation the rats were transferred to conditioned laboratories (temp.=21±1° C., relative humidity=65±5%).
The rats were treated subcutaneously or orally with a test compound or with the solvent (NaCl solution, 0.9%). […] Survival after 4 hours is therefore considered to be a safe criterion of a protective effect of drug administration.
The ED50 -values of the compounds of formula (I) are listed in the first column of table 1. Said ED50 -values are the values in mg/kg body weight at which the tested compounds protect 50% of the tested animals against compound 48/80-induced lethality.

Experiment [2] deals with serotonin. Description: Antagonistic activity on the effects of serotonin in the gastric lesion test (lesions induced by compound 48/80). It is filed as in vivo, rat (male, Wistar inbred strain). From the text: The compounds of formula (I) and the pharmaceutically acceptable acid addition salts thereof are also potent serotonin-antagonists. The potency of the subject compounds as serotonin-antagonists is clearly evidenced by the results obtained in the following tests wherein the antagonistic activity of the subject compounds on the effect of serotonin is examined.
Antagonistic activity on the effects of serotonin in the gastric lesion test
Comound 48/80 (a mixture of oligomers obtained by condensation of 4-methoxy-N-methylbenzeneethanamine and formaldehyde) is a potent releaser of vasoactive amines from endogenous stores such as, for example, histamine and serotonin. […] The shock, followed by dead, can be avoided if the rats are pretreated with a classical H 1 antagonist.
Male rats of a Wistar inbred strain, weighing 220-250 g, were starved overnight, water being available ad libitum. The test compounds were administered orally as a solution or as a suspension in aqueous medium. A control rat and a "blank" rat received the test compound. One hour later 5-[4-(diphenylmethyl)-1-piperazinylmethyl]-1-methyl-1H-benzimidazole-2-methanol was administered subcutaneously to all rats at the dose of 2.5 mg/kg.
Four hours after the intravenous injection of compound 48/80, the rats were decapitated and the stomachs were removed. Subsequently the stomachs ere inspected for distension and contents (blood, fluid, food) and thoroughly rinsed. The macroscopic lesions were scored from 0 to +++, 0 corresponding to complete absence of visible lesions and the highest score corresponding to reddish rough patches covering more than half the glandular area.

[3] abbreviates: Rattus norvegicus, po, 4 h; read-out: gastric lesion test ED50 (distension of the stomach and lesions in the glandular area completely absent in 50% of rats).
The mark [4] stands for this setting: Rattus norvegicus, po, 4 h, read-out: gastric lesion test ED50 (distension of the stomach and lesions in the glandular area completely absent in 50% of rats).

Like-named read-outs stand apart in the source and are kept apart here.

On to `Cc1nc2scc(C)n2c(=O)c1CCN1CCC(Nc2nc3ccccc3n2Cc2ccc(F)cc2)CC1` [Compound 1, 6-[2-[4-[[1-[(4-fluorophenyl)methyl]-1H-benzimidazol-2-yl]amino]-1-piperidinyl]ethyl]-3,7-dimethyl-5H-thiazolo[3,2-a]pyrimidin-5-one], for which the ED50 in experiment [1] is 0.31 mg/kg; in experiment [2] (setting [3]) it was 0.63 mg/kg.

For `Cc1nc2ccccn2c(=O)c1CCN1CCC(Nc2nc3ccccc3n2Cc2ccc(F)cc2)CC1` [Compound 4], the ED50 in experiment [1] is 0.16 mg/kg; in experiment [2] (setting [4]) it was 0.31 mg/kg.

Take `Cc1nc2ccccn2c(=O)c1CCN1CCC(Nc2nc3ccccc3n2Cc2ccco2)CC1` [Compound 5]: the ED50 in experiment [1] was found to be 0.16 mg/kg; in experiment [2] (setting [3]), 0.04 mg/kg.

For `Cc1nc2ccccn2c(=O)c1CCN1CCC(Nc2nc3cccnc3n2Cc2ccco2)CC1` [Compound 6], the ED50 in experiment [1] came out at 0.08 mg/kg; in experiment [2] (setting [3]), 0.63 mg/kg.

Turning to `Cc1nc2scc(C)n2c(=O)c1CCN1CCC(Nc2nc3cccnc3n2Cc2ccc(F)cc2)CC1` [Compound 7], the ED50 stood at 0.04 mg/kg in experiment [1] and 0.31 mg/kg in experiment [2] (setting [3]).

Take `Cn1cnc2c1c(=O)n(CCN1CCC(Nc3nc4ccccc4n3Cc3ccc(F)cc3)CC1)c(=O)n2C` [Compound 8]: the ED50 in experiment [1] was determined as 0.16 mg/kg; in experiment [2] (setting [4]), 0.63 mg/kg.

For the compound `Cc1nc2scc(C)n2c(=O)c1CCN1CCC(Nc2nc3ccccc3n2Cc2ccco2)CC1` [Compound 9], the ED50 was 0.08 mg/kg in experiment [1] and 0.16 mg/kg in experiment [2] (setting [3]).

As to `Cc1nc2scc(C)n2c(=O)c1CCN1CCC(Nc2nc3cccnc3n2Cc2ccco2)CC1` [Compound 10], the ED50 in experiment [1] was 0.08 mg/kg; in experiment [2] (setting [3]), 0.16 mg/kg.

Consider `Cn1cnc2c1c(=O)n(CCN1CCC(Nc3nc4ccccc4n3Cc3ccco3)CC1)c(=O)n2C` [Compound 11], for which the ED50 in experiment [1] came out at 0.08 mg/kg; in experiment [2] (setting [3]) it was 0.04 mg/kg.

As for `Cn1cnc2c1c(=O)n(CCN1CCC(Nc3nc4cccnc4n3Cc3ccc(F)cc3)CC1)c(=O)n2C` [Compound 12], the ED50 in experiment [1] was 0.16 mg/kg; in experiment [2] (setting [4]), 0.31 mg/kg.

As for `Cc1nc2n(c(=O)c1CCN1CCC(Nc3nc4ccccc4n3Cc3ccco3)CC1)CCCS2` [Compound 13], the ED50 was found to be 0.02 mg/kg in experiment [1] and 0.08 mg/kg in experiment [2] (setting [3]).

For the compound `Cc1nc2n(c(=O)c1CCN1CCC(Nc3nc4cccnc4n3Cc3ccco3)CC1)CCCS2` [Compound 14], the ED50 in experiment [1] was found to be 0.02 mg/kg.

As for `Cc1nc2n(c(=O)c1CCN1CCC(Nc3nc4ccccc4n3Cc3ccc(F)cc3)CC1)CCCS2` [Compound 15], the ED50 in experiment [1] stood at 0.16 mg/kg; in experiment [2] (setting [3]), 0.31 mg/kg.

For `Cc1nc2n(c(=O)c1CCN1CCC(Nc3nc4cccnc4n3Cc3ccc(F)cc3)CC1)CCCS2` [Compound 16], the ED50 in experiment [1] was 0.16 mg/kg.

Turning to `Cc1nc2ccccn2c(=O)c1CCN1CCC(Nc2nc3cccnc3n2Cc2ccc(F)cc2)CC1.Cl.Cl` [Compound 22, 3-[2-[4-[[3-[(4-fluorophenyl)methyl]-3H-imidazo[4,5-b]-pyridin-2-yl]amino]-1-piperidinyl]ethyl]-2-methyl-4H-pyrido[1,2-a]pyrimidin-4-one dihydrochloride], the ED50 in experiment [1] came to 0.16 mg/kg.

For `O=c1[nH]c2ccccc2c(=O)n1CCN1CCC(Nc2nc3cccnc3n2Cc2ccc(F)cc2)CC1` [Compound 25], in experiment [1], the ED50 is 0.16 mg/kg.

In the case of `O=c1[nH]c2ccccc2c(=O)n1CCN1CCC(Nc2nc3cccnc3n2Cc2ccco2)CC1` [Compound 26], in experiment [1], the ED50 stood at 0.08 mg/kg.

As for `Cc1nc2sccn2c(=O)c1CCN1CCC(Nc2nc3ccccc3n2Cc2ccc(F)cc2)CC1` [Compound 27], the ED50 in experiment [1] was 0.08 mg/kg.

With `O=c1[nH]c2ccccc2c(=O)n1CCCN1CCC(Nc2nc3ccccc3n2Cc2ccco2)CC1` [Compound 30], the ED50 in experiment [1] worked out at 0.16 mg/kg.

On to `O=c1[nH]c2ccccc2c(=O)n1CCCN1CCC(Nc2nc3cccnc3n2Cc2ccco2)CC1` [Compound 32], for which, in experiment [1], the ED50 was 0.04 mg/kg.

For `Cn1c(=O)n(CCN2CCC(Nc3nc4cccnc4n3Cc3ccco3)CC2)c(=O)c2ccccc21` [Compound 35], the ED50 in experiment [1] came to 0.02 mg/kg.

Consider `Cn1c(=O)n(CCN2CCC(Nc3nc4cccnc4n3Cc3ccc(F)cc3)CC2)c(=O)c2ccccc21` [Compound 36], for which the ED50 in experiment [1] stood at 0.16 mg/kg.

On to `O=c1[nH]c2ccccc2c(=O)n1CCCN1CCC(Nc2nc3cccnc3n2Cc2ccc(F)cc2)CC1` [Compound 37], for which the ED50 in experiment [1] is 0.16 mg/kg.

In the case of `Cn1c(=O)c2c(ncn2CCN2CCC(Nc3nc4cccnc4n3Cc3ccco3)CC2)n(C)c1=O` [Compound 42], the ED50 in experiment [1] came out at 0.16 mg/kg.

On to `Cn1c(=O)c2c(ncn2CCN2CCC(Nc3nc4cccnc4n3Cc3ccc(F)cc3)CC2)n(C)c1=O` [Compound 43], for which, in experiment [1], the ED50 was found to be 0.16 mg/kg.

Take `Cc1nc2n(c(=O)c1CCN1CCC(Nc3nc4ccccc4n3Cc3ccco3)CC1)CCCC2` [Compound 44]: the ED50 in experiment [1] was 0.16 mg/kg.

For the compound `Cc1nc2n(c(=O)c1CCN1CCC(Nc3nc4ccccc4n3Cc3ccc(F)cc3)CC1)CCCC2` [Compound 45], in experiment [1], the ED50 worked out at 0.08 mg/kg.

On to `Cc1nc2n(c(=O)c1CCN1CCC(Nc3nc4cccnc4n3Cc3ccco3)CC1)CCS2` [Compound 48], for which the ED50 in experiment [1] was 0.08 mg/kg.

On to `Cc1nc2n(c(=O)c1CCN1CCC(Nc3nc4cccnc4n3Cc3ccco3)CC1)C(C)CCC2` (centres unmarked) [Compound 54], for which the ED50 in experiment [1] is 0.31 mg/kg.

Take `Cc1nc2n(c(=O)c1CCN1CCC(Nc3nc4ccccc4n3Cc3ccccn3)CC1)CCCC2` [Compound 57]: the ED50 in experiment [1] worked out at 0.16 mg/kg.

Take `Cc1nc2ccccn2c(=O)c1CCN1CCC(Nc2nc3ccccc3n2Cc2cnccn2)CC1` [Compound 68, 2-methyl-3-[2-[4-[[1-(2-pyrazinylmethyl)-1H-benzimidazol-2-yl]amino]-1-piperidinyl]ethyl]-4H-pyrido[1,2-a]pyrimidin-4-one]: in experiment [1], the ED50 was 0.08 mg/kg.

With `Cc1nc2n(c(=O)c1CCN1CCC(Nc3nc4ccccc4n3Cc3ccc(Cl)cc3)CC1)CCCC2` [Compound 69], the ED50 in experiment [1] was 0.16 mg/kg.

As for `Cc1nc2cccc(C)n2c(=O)c1CCN1CCC(Nc2nc3cccnc3n2Cc2ccco2)CC1` [Compound 75], in experiment [1], the ED50 worked out at 0.01 mg/kg.

Consider `Cc1nc2ccc(Br)cn2c(=O)c1CCN1CCC(Nc2nc3cccnc3n2Cc2ccco2)CC1` [Compound 76], for which the ED50 in experiment [1] is 0.08 mg/kg.

Consider `Cc1nc2ccccn2c(=O)c1CCN1CCC(Nc2nc3ccncc3n2Cc2ccc(F)cc2)CC1` [Compound 79], for which the ED50 in experiment [1] came to 0.16 mg/kg.

In the case of `Cc1nc2c(NCCN3CCC(Nc4nc5ccccc5n4Cc4ccc(F)cc4)CC3)ncnc2n1C` [Compound 96], the ED50 in experiment [1] turned out to be 0.16 mg/kg.

For the compound `Cn1cnc2c(NCCN3CCC(Nc4nc5ccccc5n4Cc4ccccc4)CC3)ncnc21` [Compound 100], the ED50 in experiment [1] is 0.16 mg/kg.

Turning to `Cn1cnc2c(NCCN3CCC(Nc4nc5cc(O)ccc5n4Cc4ccc(F)cc4)CC3)ncnc21` [Compound 102], in experiment [1], the ED50 amounted to 0.08 mg/kg.

On to `Fc1ccc(Cn2c(NC3CCN(CCOc4nc5cccnc5s4)CC3)nc3ccccc32)cc1` [Compound 107, 1-[(4-fluorophenyl)methyl]-N-[1-[2-[(thiazolo[5,4-b]pyridin-2-yl)oxy]ethyl]-4-piperidinyl]-1H-benzimidazol-2-amine], for which the ED50 in experiment [1] was found to be 0.16 mg/kg.

Take `c1ccc(Cn2c(NC3CCN(CCNc4nc5cnccc5[nH]4)CC3)nc3cccnc32)nc1` [Compound 113]: the ED50 in experiment [1] amounted to 0.04 mg/kg.

As to `O=c1[nH]c2ccccc2c(=O)n1CCCCN1CCC(Nc2nc3ccccc3n2Cc2ccco2)CC1` [Compound 128, 3-[4-[4-[[1-(2-furanylmethyl)-1H-benzimidazol-2-yl]amino]-1-piperidinyl]-butyl]-2,4(1H,3H)-quinazolinedione], the ED50 in experiment [1] is 0.08 mg/kg.

Turning to `O=c1c2ccccc2[nH]c(=S)n1CCN1CCC(Nc2nc3ccccc3n2Cc2ccco2)CC1` [Compound 132, 3-[2-[4-[[1-(2-furanylmethyl)-1H-benzimidazol-2-yl]amino]-1-piperidinyl]ethyl]-2,3-dihydro-2-thioxo-4(1H)-quinazolinone], in experiment [1], the ED50 stood at 0.16 mg/kg.

Consider `O=c1[nH]c2c(Cl)ncnc2n1CCN1CCC(Nc2nc3ccccc3n2Cc2ccc(F)cc2)CC1` [Compound 144, 6-chloro-9-[2-[4-[[1-[(4-fluorophenyl)methyl]-1H-benzimidazol-2-yl]amino]-1-piperidinyl]ethyl]-7,9-dihydro-8H-purin-8-one], for which, in experiment [1], the ED50 amounted to 0.08 mg/kg.

Take `Fc1ccc(Cn2c(NC3CCN(CCc4cn5cccnc5n4)CC3)nc3ccccc32)cc1` [Compound 151, 1-[(4-fluorophenyl)methyl]-N-[1-[2-(imidazo[3,2-a]pyrimidin-2-yl)ethyl]-4-piperidinyl]-1H-benzimidazol-2-amine]: the ED50 in experiment [1] amounted to 0.08 mg/kg.

These data come from patent US4695569A, “Bicyclic heterocyclyl containing N-(bicyclic heterocyclyl)-4-piperidinamines” (Janssen Pharmaceutica N.V., priority 1987, dated 1987).
